Laboratory results from patent US11730778B2, “Method of increasing the level and production of metabolized phytonutrients in a subject” (ACCESS BUSINESS GROUP INTERNATIONAL LLC, priority 2019, dated 2023).

Test system: intestinal microbiota (fecal samples) of human subjects
Assay: in-vitro fermentations of fecal samples (intestinal microbiota-representing microarray) with phytonutrient precursor compounds
Format: in vitro ADME
Conditions: in-vitro fermentation; for Phytonutrient Producer Status: conversion of the phytonutrient precursor compound, S1: fecal sample of Subject 1 (S1); for Phytonutrient Producer Status: conversion of the phytonutrient precursor compound, S2: fecal sample of Subject 2 (S2); for Phytonutrient Producer Status: conversion of the phytonutrient precursor compound, S3: fecal sample of Subject 3 (S3); for Phytonutrient Producer Status: conversion of the phytonutrient precursor compound, S4: fecal sample of Subject 4 (S4); for Phytonutrient Producer Status: conversion of the phytonutrient precursor compound, S5: fecal sample of Subject 5 (S5); for Phytonutrient Producer Status: conversion of the phytonutrient precursor compound, S6: fecal sample of Subject 6 (S6); for Phytonutrient Producer Status: conversion of the phytonutrient precursor compound, S7: fecal sample of Subject 7 (S7); for Phytonutrient Producer Status: conversion of the phytonutrient precursor compound, S8: fecal sample of Subject 8 (S8); for Phytonutrient Producer Status: conversion of the phytonutrient precursor compound, S9: fecal sample of Subject 9 (S9); for Phytonutrient Producer Status: conversion of the phytonutrient precursor compound, S10: fecal sample of Subject 10 (S10); for Phytonutrient Producer Status: conversion of the phytonutrient precursor compound, S11: fecal sample of Subject 11 (S11)
Experimental: The phytonutrient producer status of 11 human subjects (“Subjects 1-11”, or “S1”-“S11”, respectively) was assessed by determining the microbial metabolism of various phytonutrient precursor compounds. […] The metabolism of the phytonutrient precursor compound in each assay was then determined via monitoring conversion (+), partial conversion (±), or no conversion (−) of the phytonutrient precursor compound over time.

Compound	Phytonutrient Producer Status: conversion of the phytonutrient precursor compound, S1	Phytonutrient Producer Status: conversion of the phytonutrient precursor compound, S2	Phytonutrient Producer Status: conversion of the phytonutrient precursor compound, S3	Phytonutrient Producer Status: conversion of the phytonutrient precursor compound, S4	Phytonutrient Producer Status: conversion of the phytonutrient precursor compound, S5	Phytonutrient Producer Status: conversion of the phytonutrient precursor compound, S6	Phytonutrient Producer Status: conversion of the phytonutrient precursor compound, S7	Phytonutrient Producer Status: conversion of the phytonutrient precursor compound, S8	Phytonutrient Producer Status: conversion of the phytonutrient precursor compound, S9	Phytonutrient Producer Status: conversion of the phytonutrient precursor compound, S10	Phytonutrient Producer Status: conversion of the phytonutrient precursor compound, S11
Oc1cc(O)c2c(c1)O[C@H](c1cc(O)c(O)c(O)c1)[C@H](O)C2 [Epigallocatechol]	+	+	±	+	+	+	+	+	+	+	+
COc1ccc([C@@H]2CC(=O)c3c(O)cc(O[C@@H]4O[C@H](CO[C@@H]5O[C@@H](C)[C@H](O)[C@@H](O)[C@H]5O)[C@@H](O)[C@H](O)[C@H]4O)cc3O2)cc1O [Hesperidin]	+	+	+	+	±	+	+	+	+	+	+
COc1cc(C[C@@H](CO[C@@H]2O[C@H](CO)[C@@H](O)[C@H](O)[C@H]2O)[C@H](CO[C@@H]2O[C@H](CO)[C@@H](O)[C@H](O)[C@H]2O)Cc2ccc(O)c(OC)c2)ccc1O [Secoisolariciresinol diglucoside]	+	+	±	+	+	±	±	±	+	+	+

The remaining lines, values ahead:

Phytonutrient Producer Status: conversion of the phytonutrient precursor compound, S1	Phytonutrient Producer Status: conversion of the phytonutrient precursor compound, S2	Phytonutrient Producer Status: conversion of the phytonutrient precursor compound, S3	Phytonutrient Producer Status: conversion of the phytonutrient precursor compound, S4	Phytonutrient Producer Status: conversion of the phytonutrient precursor compound, S5	Phytonutrient Producer Status: conversion of the phytonutrient precursor compound, S6	Phytonutrient Producer Status: conversion of the phytonutrient precursor compound, S7	Phytonutrient Producer Status: conversion of the phytonutrient precursor compound, S8	Phytonutrient Producer Status: conversion of the phytonutrient precursor compound, S9	Phytonutrient Producer Status: conversion of the phytonutrient precursor compound, S10	Phytonutrient Producer Status: conversion of the phytonutrient precursor compound, S11	Compound
±	±	+	±	±	+	+	±	+	+	+	OC[C@H]1O[C@@H](Oc2cc3c(O)cc(O)cc3[o+]c2-c2ccc(O)c(O)c2)[C@H](O)[C@@H](O)[C@@H]1O [Cyanidin-3-glucoside]
±	±	±	−	−	−	−	±	−	±	−	O=c1oc2c(O)c(O)cc3c(=O)oc4c(O)c(O)cc1c4c23 [Ellagic acid]
−	+	+	+	−	+	+	−	−	+	−	O=c1c(O)c(-c2ccc(O)c(O)c2)oc2cc(O)cc(O)c12 [Quercetin]
